Assay results from US12612465B2, “Formulations comprising PCSK9 specific monoclonal antibodies” (Amgen Inc., priority 2012, dated 2026).

Columns and labels:
PCSK9 [1] = test: Serum lipids after a single subcutaneous dose in cynomolgus monkeys; type: in vivo, cynomolgus monkey; details: 0.5 mg/kg single SC
Text: Briefly, naive male cynomolgus monkeys were acclimated to their environment for at least 2 weeks prior to experimentation. Animals were randomized into treatment groups based on a pre-screen of their serum TC, HDL-C, LDL-C, and triglyceride levels, and their body weight. After 1 week, animals were fasted overnight, and bled from the peripheral vasculature (cephalic or saphenous vein), for measurement of baseline serum lipid levels at a time point designated T=0. […] Fasting blood samples were then collected from animals at designated time points over a 45 day period.
At specified time points, blood was collected from animals under overnight fasting conditions from the peripheral vasculature (cephalic or saphenous vein). Whole blood was allowed to coagulate for 30 minutes at room temperature. Following centrifugation at 3,000 rpm for 20 minutes, serum was collected. Direct serum cholesterol analysis was performed using the Cobas Integra 400 analyzer (Roche Diagnostics Inc, Indianapolis, Ind.). Apolipoprotein B serum levels were determined at specified time points (day 0, 3, 6, 15, 24 and 33) by Anilytics, Md., with the following methodology. A 17 μL aliquot of the sample (no preparation) was used for analysis with a Hitachi 717 Analyzer using a 6 points standard curve. If the initial value of the sample was higher than the standard curve linearity, then the sample was diluted and repeated with the result multiplied by the appropriate dilution factor. The reagents for the assay (APO-B Reagent Kit #86071, Antibody Set #86060, Control Set #86103) were obtained from DiaSorin (Stillwater, Minn.).
A statistical model that considers baseline as a covariate and treatment group as a fixed effect was fit to the log transformed response at each time point for LDL-C, HDL-C, TC, and triglycerides. Tukey's multiple comparison correction was applied to adjust the pair wise comparisons at each time point. The statistical significance was evaluated at alpha=0.05 using adjusted p-values.

human PCSK9 = target: T1, human PCSK9 (Homo sapiens, UniProt Q8NBP7, E620G/G670E/V474I); test: Serum lipids in C57BL/6 mice expressing human PCSK9 by AAV; type: in vivo, mouse; details: 30 mg/kg IV bolus
T1 construct: made in house
T1 sequence (Q8NBP7 153-692 V474I/E620G/G670E): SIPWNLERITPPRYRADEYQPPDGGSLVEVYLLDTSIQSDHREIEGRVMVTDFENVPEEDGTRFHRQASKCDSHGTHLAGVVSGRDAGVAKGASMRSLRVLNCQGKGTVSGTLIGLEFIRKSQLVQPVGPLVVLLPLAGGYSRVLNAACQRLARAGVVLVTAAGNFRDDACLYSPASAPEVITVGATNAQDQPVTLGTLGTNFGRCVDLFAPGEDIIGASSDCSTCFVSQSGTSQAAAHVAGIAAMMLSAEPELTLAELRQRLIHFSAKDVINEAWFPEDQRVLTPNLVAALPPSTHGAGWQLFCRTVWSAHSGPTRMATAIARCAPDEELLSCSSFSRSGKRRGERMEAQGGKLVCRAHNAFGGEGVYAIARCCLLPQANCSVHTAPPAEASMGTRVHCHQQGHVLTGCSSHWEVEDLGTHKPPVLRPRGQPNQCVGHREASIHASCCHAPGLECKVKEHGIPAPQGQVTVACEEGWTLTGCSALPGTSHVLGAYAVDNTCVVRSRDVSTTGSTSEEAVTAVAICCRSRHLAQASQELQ
Experimental: Briefly, 120 C57BL/6 mice expressing human PCSK9 were generated by infection with an engineered adeno associated virus (AAV) coding for human PCSK9, resulting in elevated levels of circulating low density lipoprotein cholesterol (LDL-C). Serum cholesterol analysis was performed using the Cobas Integra 400 plus chemistry analyzer (Roche Diagnostics, Indianapolis, Ind.). Animals were randomized into treatment groups with similar levels of non-HDL-C (LDL-C and VLDL-C), HDL-C and TC. On treatment day 0 (T=0) a subset of mice was euthanized and serum collected to establish that day's baseline levels. Remaining mice were then administered 11F1, 8A3 or anti-keyhole limpethemocyanin (KLH) IgG2 control antibody at 30 mg/kg. via tail vein injection. At days 1 through 5 following injection, subsets of mice were euthanized and whole blood was collected from the vena cava and allowed to coagulate for 30 minutes at room temperature. Following centrifugation at 12,000 rpm with a bench top centrifuge for 10 minutes, serum was collected. Serum cholesterol analysis was performed using the Cobas Integra 400 plus chemistry analyzer.
All cholesterol results were expressed as the mean±standard error of the mean. All pharmacokinetic data were expressed as the mean±standard deviation. The p value of 0.05, determined by 1-way ANOVA was used as a threshold to determine statistical significance between the anti-KLH IgG2 control antibody injected animals and those dosed with anti-PCSK9 antibody at the same time point.

furin = target: T2, furin (Homo sapiens, UniProt P09958); test: 11F1 binding specificity competition assay; details: 0.4 μg/mL 11F1, 0 to 20 μg/mL competitor, furin inhibitor 4.5 μg/mL
T2 construct: purchased R&D Systems
T2 sequence (P09958 108-794, species assumed): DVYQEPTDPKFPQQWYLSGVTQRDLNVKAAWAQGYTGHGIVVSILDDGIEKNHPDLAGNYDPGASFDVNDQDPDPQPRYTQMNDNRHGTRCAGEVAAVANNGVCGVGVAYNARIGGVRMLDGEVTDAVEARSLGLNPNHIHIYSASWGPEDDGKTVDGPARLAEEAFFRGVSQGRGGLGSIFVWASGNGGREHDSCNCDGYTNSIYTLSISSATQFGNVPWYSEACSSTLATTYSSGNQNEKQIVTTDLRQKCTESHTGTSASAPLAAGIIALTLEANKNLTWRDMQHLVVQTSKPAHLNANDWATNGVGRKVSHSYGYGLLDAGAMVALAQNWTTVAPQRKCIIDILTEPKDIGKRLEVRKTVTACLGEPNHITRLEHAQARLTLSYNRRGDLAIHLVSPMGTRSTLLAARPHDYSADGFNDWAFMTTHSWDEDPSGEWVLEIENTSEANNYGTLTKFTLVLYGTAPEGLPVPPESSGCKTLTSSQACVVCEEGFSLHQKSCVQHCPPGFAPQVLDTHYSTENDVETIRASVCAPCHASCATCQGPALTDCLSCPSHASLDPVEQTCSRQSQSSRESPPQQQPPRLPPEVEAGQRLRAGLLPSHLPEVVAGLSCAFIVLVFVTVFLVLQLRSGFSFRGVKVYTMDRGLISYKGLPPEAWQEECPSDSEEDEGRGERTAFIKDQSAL
Experimental: (§1) Biotinylated PCSK9, diluted in buffer A (25 mM Tris, 150 mM NaCl, 0.1% BSA, 0.05% tween, pH 7.5) was bound to neutravidin coated 96 well plates at a concentration of 0.2 μg/mL, for one hour incubation at room temperature. Separately, 0.4 μg/mL of 11F1 was incubated for one hour at room temperature with various concentrations (ranging from 0 to 20 μg/mL) of either PCSK1, PCSK2, PCSK7, PCSK9 or furin (R&D Systems, Minneapolis, Minn.) (diluted in buffer A w/o tween). Furin inhibitor, at 4.5 μg/mL, was included with all furin containing reactions. The PCSK9 coated streptavidin plate was washed with buffer A and the antibody/proprotein convertase mixture was added to the plate and incubated at room temperature for one hour. After washing, bound antibody was detected by incubation with goat-α-human Fc-HRP (160 ng/mL, diluted in buffer A) (Jackson Laboratories, Bar Harbor, Me.) followed by TMB substrate. The reaction was stopped with 1 N HCl and the absorbance was read at a wavelength of 450 nm on a Spectramax Plus 384 spectrophotometer (Molecular Devices Inc., Sunnyvale, Calif.).
(§2) This assay relied on the ability of proprotein convertase in solution to compete for the binding of 11F1 to plate-captured PCSK9. […] All results were expressed as the mean OD450 value±standard deviation versus concentration of the proprotein convertase. […] Therefore, at the protein concentrations studied, 11F1 binds only to PCSK9 and not to the other proprotein convertase family members tested.

PCSK9 [2] = target: PCSK9 (Homo sapiens, UniProt Q8NBP7); test: 11F1 binding specificity competition assay; details: 0.4 μg/mL 11F1, 0 to 20 μg/mL competitor
PCSK9 (Homo sapiens, UniProt Q8NBP7), sequence (Q8NBP7 153-692): as the sequence (Q8NBP7 153-692 V474I/E620G/G670E) above, with I322V, G468E, E518G counted along it
Experimental: as §1, §2

PCSK2 = target: T3, PCSK2 (Homo sapiens, UniProt P16519); test: 11F1 binding specificity competition assay; details: 0.4 μg/mL 11F1, 0 to 20 μg/mL competitor
T3 construct: purchased R&D Systems
T3 sequence (P16519 110-638): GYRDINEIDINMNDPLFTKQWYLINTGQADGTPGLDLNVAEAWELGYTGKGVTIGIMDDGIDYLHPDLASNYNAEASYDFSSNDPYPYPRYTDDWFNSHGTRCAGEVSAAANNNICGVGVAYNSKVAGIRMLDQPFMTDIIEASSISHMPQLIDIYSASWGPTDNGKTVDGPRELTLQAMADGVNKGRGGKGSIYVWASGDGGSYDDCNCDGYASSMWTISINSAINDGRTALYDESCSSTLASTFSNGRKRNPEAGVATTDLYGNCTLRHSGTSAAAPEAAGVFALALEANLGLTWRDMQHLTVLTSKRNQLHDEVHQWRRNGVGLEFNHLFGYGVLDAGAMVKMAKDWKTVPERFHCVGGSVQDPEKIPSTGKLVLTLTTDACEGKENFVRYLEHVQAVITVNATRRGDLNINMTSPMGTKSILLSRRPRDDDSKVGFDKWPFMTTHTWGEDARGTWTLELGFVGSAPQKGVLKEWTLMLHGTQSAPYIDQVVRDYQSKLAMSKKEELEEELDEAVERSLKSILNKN
Experimental: as §1, §2

11F1: anti-PCSK9 ABP, light/heavy variable region SEQ ID NO 465/463 [Antibody 11F1]
TC returned to levels similar to control animals (PCSK9 [1]): ≤ 27 days | maximal LDL-C lowering as compared to control animals (PCSK9 [1]): 57% | maximal TC lowering as compared to control animals (PCSK9 [1]): 27% | maximal lowering of LDL-C vs anti-KLH IgG2 control at the same time point (change) (PCSK9 [1]): −57% | serum HDL-C vs anti-KLH IgG2 control (PCSK9 [1]): No statistically significant changes | time of maximal LDL-C lowering after injection (PCSK9 [1]): 9 days | time of maximal TC lowering after injection (PCSK9 [1]): 9 days | triglycerides levels vs anti-KLH IgG2 control (PCSK9 [1]): No statistically significant changes | serum ApoB vs anti-KLH IgG2 control (PCSK9 [1]; days 3, 6, 15, 24 and 33): ApoB lowering at days 3 to 24 | HDL-C or triglyceride levels vs anti-KLH IgG2 control (PCSK9 [1]; each time point, alpha=0.05): not significantly different | lowering of HDL-C vs control animals (human PCSK9; any time point): No significant lowering of HDL-C | lowering of TC vs control animals (human PCSK9; day 4 only): 22% | maximum lowering of serum non-HDL-C vs control animals (human PCSK9; significant at days 1, 2 and 4 post-injection): 59% | effect of pre-incubation with furin in solution on 11F1 binding to plate-captured PCSK9 (furin): did not significantly impact the binding | effect of pre-incubation with PCSK9 in solution on 11F1 binding to plate-captured PCSK9 (PCSK9 [2]): dose dependently and robustly reduced | effect of pre-incubation with PCSK2 in solution on 11F1 binding to plate-captured PCSK9 (PCSK2): did not significantly impact the binding
